Here are results for one compound from PMC11729550, “Discovery of indole analogue Tc3 as a potent pyroptosis inducer and identification of its combination strategy against hepatic carcinoma” (Theranostics, 2025).

pIC50: −log10 of the molar value.

The subject of one assay is PLC-PRF5 cells. The experiment in a line: Anti-tumor activity assay (IC50 value), cells counted after three days. It is filed as cell-based. The following applies: Homo sapiens, PLC-PRF-5, 72 h. An excerpt:
The cells were counted with hemocytometer.

Another assay relates to HepG2 and SK-Hep1 cells. The experiment in a line: LDH release assay. It is filed as cell-based, human. The following applies: 0-4 μM, three days. As for the experimental part: The hepatic carcinoma cells were seeded in 96-well plates and treated with indole analogues for three days. Of note, the compounds were added into DMEM medium supplemented with 1% FBS. The cellular supernatant was collected for LDH release detection by using LDH cytotoxicity assay kit (Beyotime, C0016). Statistical analysis was combined with the cell viability data tested by WST-1 cell proliferation and cytotoxicity assay kit (Beyotime, C0035).

Another assay concerns AML-12 cells. The assay is described as follows: Flow cytometry of propidium iodide and annexin V-FITC staining. The assay is classed as cell-based, mouse. An excerpt:
Figure 2 Cytotoxic effect of Tc3 on human hepatic carcinoma cells in vitro. […] (B-C) Cell viability rates of HepG2 (B) and SK-Hep1 (C) cells treated with Tb7, Tc1, Tc3, Tc4 and other clinical chemotherapy drugs. (D-F) Flow cytometry of propidium iodide and annexin V-fluorescein isothiocyanate (FITC)-stained HepG2 cells (D). Statistical analysis of the early apoptotic cells (E) and late apoptotic cells (F). (G-I) Flow cytometry of propidium iodide and annexin V-fluorescein isothiocyanate (FITC)-stained AML-12 cells (G). Statistical analysis of the early apoptotic cells (H) and late apoptotic cells (I). Data are presented as mean ± SD of three independent biological experiments. *p < 0.05, **p < 0.01, ***p < 0.001 and ****p < 0.0001, ns, no significant.
Background: Flow cytometry measures light scatter and fluorescence of single cells or particles in a stream.

A word on the pIC50: it is the IC50 on a negative log10 scale, so that one unit is a factor of ten. Turning to `CC(C)[C@H](N)C(=O)NCCCn1cc(/C=C2\S/C(=N\c3ccc(N4CCOCC4)cc3)N(Cc3ccc(F)cc3)C2=O)c2ccccc21` [Tc3], the negative logarithm of the IC50 (pIC50) with PLC-PRF5 cells is 5.75. Moreover, the LDH release levels result with HepG2 and SK-Hep1 cells was “highest LDH release”. In addition, the “cell death by annexin V / propidium iodide flow cytometry” value in the assay with AML-12 cells was “not observed”.
